Patent publication US12473250B2, “Molecular design of new antibiotics and antibiotic adjuvants against MCR strains” (priority 2019, dated 2025)
≈ marks a conversion by molar mass, not a printed value.

Assays:
Format in all cases: cell-based
[1] = test system: colistin resistant MCR (+) E. Coli strains; experiment: Synergy study: colistin MIC in the presence of compound
Method: (§1) The MICs of the individual drugs and LC compound in combinations were determined using the broth microdilution technique as recommended by the CLSI whereby the two anti-microbial agents were added in an equal amount. (e.g.: 50 μL of Colistin: 50 μL of LC compounds). Diluted media containing compounds and antibiotics will be serially diluted 2-fold, and LC compounds and antibiotics alone or in combination will be assayed at fixed synergy concentration. In all cases, the lowest concentration at which no visible growth occurred was be recorded to be the MIC value of individual and combined antibacterial agents. The results were obtained after 24 hours of incubation.

[2] = test system: colistin resistant MCR (+) E. Coli strains; experiment: MIC, broth microdilution, compound alone; details: for MIC: compound alone
Method: (§2) MIC experiments of the antimicrobial agents were determined by a modified broth microdilution method in accordance with the Clinical and Laboratory Standards Institute (CLSI) guidelines using 96 well culture plates. In brief, serial dilutions of all plates were prepared at different concentrations (μg). The inoculum suspension was prepared by adding isolated colonies from a 18-20 hours on TSA plate into phosphate buffer (0.31 mM, pH 7.2) or in water for injection (BBraun) and adjusting the suspension to a turbidity equivalent to 0.5 McFarland Standard. Each well contained a final bacterial concentration of approximately 5×10^5 colony forming units (CFU)/mL. The plate was covered and incubated at 35° C. for 24 hours. […] For the microdilution plates, turbidity in wells can be measured at OD600 using TECAN infinite M200Pro. MIC was determined as […] concentration that gives a 99 percent inhibition.

various pathogens = experiment: organism not typed
Method: as §1
Using the combination of LC100 and colistin, the activity of a broad range of strains was further tested (Table 7).

[3] = test system: colistin resistant MCR (−) E. Coli strains; experiment: Synergy study: colistin MIC in the presence of compound; details: compound at 5 μg (Table 2a: 5 ug/ml)
Method: as §1

[4] = test system: colistin resistant MCR (−) E. Coli strains; experiment: MIC, broth microdilution, compound alone
Method: as §2

[5] = strain 7028444207 (Table 1b), MCR (+)
[6] = Escherichia coli, 6083655967 [MCR 1+, E. Coli]
[7] = Escherichia coli, 6093560257 [MCR 1+, E. Coli, NDM-1]
[8] = Escherichia coli, 7023446108 [MCR 1−, E. Coli]
[9] = Escherichia coli, 7103531927 [MCR 1+, E. Coli, KPC+]
[10] = Escherichia coli, 7113636863 [MCR 1+, E. Coli, NDM-1]
[11] = Escherichia coli, E. Coli CRE 11804
[12] = Escherichia coli, E. Coli CRE 17232
[13] = Escherichia coli, E. Coli CRE 17528

CCN(CC)CCCCOc1ccc(/C=C/C(=O)c2ccc(OCCCCN(CC)CC)cc2O)cc1 [LC107]
Colistin MIC in the presence of the compound ([1]; strain 6075066346, MCR(+), compound at 10 μg (Table 2a: 10 ug/ml)): 3.125 µg/mL
Colistin MIC in the presence of the compound ([1]; strain 6083655967, MCR(+), compound at 10 μg (Table 2a: 10 ug/ml)): 3.125 µg/mL
Colistin MIC in the presence of the compound ([1]; strain 6103645107, MCR(+), compound at 10 μg (Table 2a: 10 ug/ml)): 3.125 µg/mL
Colistin MIC in the presence of the compound ([1]; strain 6123520276, MCR(+), compound at 10 μg (Table 2a: 10 ug/ml)): 3.125 µg/mL
Colistin MIC in the presence of the compound ([1]; strain 7013177695, MCR(+), compound at 10 μg (Table 2a: 10 ug/ml)): 3.125 µg/mL
Colistin MIC in the presence of the compound ([1]; strain 7023436560, MCR(+), compound at 10 μg (Table 2a: 10 ug/ml)): 6.25 µg/mL
Colistin MIC in the presence of the compound ([1]; strain 7023444207, MCR(+), compound at 10 μg (Table 2a: 10 ug/ml)): 6.25 µg/mL
MIC ([2]; strain 6075066346, MCR (+)): >100 µg/mL
MIC ([2]; strain 6083655967, MCR (+)): >100 µg/mL
MIC ([2]; strain 6103645107, MCR (+)): >100 µg/mL
MIC ([2]; strain 6123520276, MCR (+)): >100 µg/mL
MIC ([2]; strain 7013177695, MCR (+)): >100 µg/mL
MIC ([2]; strain 7023436560, MCR (+)): >100 µg/mL
MIC [2, 5]: >100 µg/mL

CCN(CC)CCCCOc1ccc(C2COc3c(ccc4c3C=CC(C)(C)O4)C2)c(OCCCCN(CC)CC)c1 (centres unmarked) [LC105]
Colistin MIC in the presence of the compound ([1]; strain 6075066346, MCR(+), compound at 12.5 μg): 1.56 µg/mL
Colistin MIC in the presence of the compound ([1]; strain 6083655967, MCR(+), compound at 12.5 μg): 0.78 µg/mL
Colistin MIC in the presence of the compound ([1]; strain 6103645107, MCR(+), compound at 12.5 μg): 1.56 µg/mL
Colistin MIC in the presence of the compound ([1]; strain 6123520276, MCR(+), compound at 12.5 μg): 1.56 µg/mL
Colistin MIC in the presence of the compound ([1]; strain 7013177695, MCR(+), compound at 12.5 μg): 0.78 µg/mL
Colistin MIC in the presence of the compound ([1]; strain 7023436560, MCR(+), compound at 12.5 μg): 1.56 µg/mL
Colistin MIC in the presence of the compound ([1]; strain 7023444207, MCR(+), compound at 12.5 μg): 0.78 µg/mL
MIC ([2]; strain 6075066346, MCR (+)): 25 µg/mL (≈ 43.2 µM)
MIC ([2]; strain 6083655967, MCR (+)): 25 µg/mL (≈ 43.2 µM)
MIC ([2]; strain 6103645107, MCR (+)): 25 µg/mL (≈ 43.2 µM)
MIC ([2]; strain 6123520276, MCR (+)): 25 µg/mL (≈ 43.2 µM)
MIC ([2]; strain 7013177695, MCR (+)): 25 µg/mL (≈ 43.2 µM)
MIC ([2]; strain 7023436560, MCR (+)): 25 µg/mL (≈ 43.2 µM)
MIC [2, 5]: 25 µg/mL (≈ 43.2 µM)

Cc1cc(OCCCCN(Cc2ccccn2)Cc2ccccn2)cc(OCCCCN(Cc2ccccn2)Cc2ccccn2)c1 [Orc-DPA]
concentration at which the compound shows synergy with colistin ([1]; against mcr-1 bacteria): 50 µg/mL

COc1c(N2CCNC(C)C2)c(F)cc2c(=O)c(C(=O)O)cn(C3CC3)c12 (centres unmarked) [Gatifloxacin]
MIC (various pathogens; ACBA 1003 (CI)): 12.5 µg/mL
MIC (various pathogens; ACBA 1004 (CI)): 12.5 µg/mL
MIC (various pathogens; ACBA 1005 (CI)): 6.25 µg/mL
MIC (various pathogens; ACBA 1006 (CI)): 6.25 µg/mL
MIC (various pathogens; ACBA 1010 (CI)): < 0.098 µg/mL
MIC (various pathogens; [6]): 12.5 µg/mL
MIC (various pathogens; [7]): 0.78 µg/mL
MIC (various pathogens; [8]): 3.12 µg/mL
MIC (various pathogens; [9]): < 0.0975 µg/mL
MIC (various pathogens; [10]): 50 µg/mL
MIC (various pathogens; Escherichia coli, ATCC8739, E. Coli ATCC 8739): 0.024 µg/mL
MIC (various pathogens; Escherichia coli, ATCC10536, E. Coli ATCC 10536): 0.012 µg/mL
MIC (various pathogens; Escherichia coli, ATCC25922, E. Coli ATCC 25922): 0.012 µg/mL
MIC (various pathogens; [11]): < 0.015 µg/mL
MIC (various pathogens; [12]): 12.5 µg/mL
MIC (various pathogens; [13]): 25 µg/mL
MIC (various pathogens; Escherichia coli, E. Coli CRE 19211): 25 µg/mL
MIC (various pathogens; Escherichia coli, E. Coli CRE 34685): 0.195 µg/mL
MIC (various pathogens; KLPN ATCC 4352): < 0.049 µg/mL
MIC (various pathogens; KLPN ATCC 10031): < 0.049 µg/mL
MIC (various pathogens; KLPN ATCC 27736): < 0.049 µg/mL
MIC (various pathogens; KLPN CRE 7955): 100 µg/mL
MIC (various pathogens; KLPN CRE 15588): 25 µg/mL
MIC (various pathogens; KLPN CRE 16260): 3.12 µg/mL
MIC (various pathogens; KLPN CRE 27025): 3.12 µg/mL
MIC (various pathogens; KLPN CRE 55301): 25 µg/mL
MIC (various pathogens; PAE ATCC 9027): 0.78 µg/mL
MIC (various pathogens; PAE ATCC 27853): 1.56 µg/mL
MIC (various pathogens; PAE DM 23155): 1.56 µg/mL
MIC (various pathogens; PAE DM 23257): 0.78 µg/mL
MIC (various pathogens; PAE DM 23376): 1.56 µg/mL
MIC (various pathogens; PAE DR 4877): 25 µg/mL
MIC (various pathogens; PAE DR 5790): 25 µg/mL
MIC (various pathogens; PAE DU 14476): 25 µg/mL

CC(C)=CCc1c(OCCNCCN)ccc(C(=O)/C=C/c2ccc(OCCNCCN)cc2)c1O [LC143]
Colistin MIC in the presence of the compound ([3]; strain 6083672926, MCR(−)): ≤0.0975 µg/mL
Colistin MIC in the presence of the compound ([3]; strain 7023446108, MCR(−)): ≤0.0975 µg/mL
Colistin MIC in the presence of the compound ([3]; strain 7033607097, MCR(−)): ≤0.0975 µg/mL
MIC ([2]; strain 6075066346, MCR (+)): 6.25 µg/mL (≈ 12.6 µM)
MIC ([2]; strain 6083655967, MCR (+)): 6.25 µg/mL (≈ 12.6 µM)
MIC ([2]; strain 7103531927, MCR (+)): 12.5 µg/mL (≈ 25.2 µM)
MIC ([4]; strain 6083672926, MCR (−)): 12.5 µg/mL (≈ 25.2 µM)
MIC ([4]; strain 7023446108, MCR (−)): 6.25 µg/mL (≈ 12.6 µM)
MIC ([4]; strain 7033607097, MCR (−)): 6.25 µg/mL (≈ 12.6 µM)

C[C@@H](O)[C@H]1C(=O)N2C(C(=O)O)=C(S[C@@H]3CN[C@H](C(=O)Nc4cccc(C(=O)O)c4)C3)[C@H](C)[C@H]12 [Ertapenem]
MIC (various pathogens; [7]): 25 µg/mL
MIC (various pathogens; [9]): 12.5 µg/mL
MIC (various pathogens; [10]): > 50 µg/mL
MIC (various pathogens; [11]): 25 µg/mL
MIC (various pathogens; [12]): 1.56 µg/mL
MIC (various pathogens; [13]): > 25 µg/mL
MIC (various pathogens; KLPN CRE 7955): > 25 µg/mL
MIC (various pathogens; KLPN CRE 16260): > 50 µg/mL
MIC (various pathogens; KLPN CRE 55301): > 25 µg/mL
MIC (various pathogens; PAE DM 4150): > 25 µg/mL
MIC (various pathogens; PAE DM 23155): 12.5 µg/mL
MIC (various pathogens; PAE DM 23257): > 25 µg/mL
MIC (various pathogens; PAE DM 23376): > 25 µg/mL
MIC (various pathogens; PAE DR 4877): > 25 µg/mL
MIC (various pathogens; PAE DR 5790): > 25 µg/mL
MIC (various pathogens; PAE DU 14476): > 25 µg/mL

CC1(C)C=Cc2c(ccc3c2OCC(c2ccc(OCCCCN(Cc4ccccn4)Cc4ccccn4)cc2OCCCCN(Cc2ccccn2)Cc2ccccn2)C3)O1 (centres unmarked) [GLA-DPA]
concentration at which the compound shows synergy with colistin ([1]; against mcr-1 bacteria): 5 µg/mL
synergy with colistin ([1]; against mcr-1 bacteria, in words): restore the sensitivity of E. coli with mcr-1 to colistin
antimicrobial activity when used alone ([2]; colistin resistant bacteria, in words): limited antimicrobial activity

C[C@@H](O)[C@H]1C(=O)N2C(C(=O)O)=C(S[C@@H]3CN[C@H](CNS(N)(=O)=O)C3)[C@H](C)[C@H]12 [Doripenem]
MIC (various pathogens; [6]): < 0.0975 µg/mL
MIC (various pathogens; [7]): 50 µg/mL
MIC (various pathogens; Escherichia coli, 6123520276 [MCR 1+, E. Coli]): < 0.0975 µg/mL
MIC (various pathogens; Escherichia coli, 7023436560 [MCR 1+, E. Coli]): < 0.0975 µg/mL
MIC (various pathogens; Escherichia coli, 7023444207 [MCR 1+, E. Coli]): < 0.0975 µg/mL
MIC (various pathogens; [8]): 0.0975 µg/mL
MIC (various pathogens; Escherichia coli, 7033607097 [MCR 1−, E. Coli]): < 0.0975 µg/mL
MIC (various pathogens; [9]): 1.56 µg/mL
MIC (various pathogens; [10]): 25 µg/mL
MIC (various pathogens; [11]): > 25 µg/mL
MIC (various pathogens; [13]): 1.56 µg/mL
MIC (various pathogens; KLPN CRE 7955): > 25 µg/mL
MIC (various pathogens; KLPN CRE 16260): > 50 µg/mL
MIC (various pathogens; KLPN CRE 27025): 25 µg/mL
MIC (various pathogens; KLPN CRE 55301): 1.56 µg/mL
MIC (various pathogens; PAE DM 4150): 6.25 µg/mL
MIC (various pathogens; PAE DM 23155): 0.195 µg/mL
MIC (various pathogens; PAE DM 23257): 0.78 µg/mL
MIC (various pathogens; PAE DM 23376): 0.78 µg/mL
MIC (various pathogens; PAE DR 4877): 0.78 µg/mL
MIC (various pathogens; PAE DR 5790, ¼ MHB): 12.5 µg/mL
MIC (various pathogens; PAE DU 14476): > 25 µg/mL
